Source: EP2718307B1, “BETA-HAIRPIN PEPTIDOMIMETICS AS CXC4 ANTAGONISTS” (Polyphor AG, priority 2011, dated 2012)
Bridge positions count the residues as written; N and C are the ends. Square brackets hold non-standard residues; d marks the D form. Peptide text beside a SMILES is read from it. Lys(iPr) = CC(C)NCCCC[C@H](N)C(=O)O; Orn(iPr) = CC(C)NCCC[C@H](N)C(=O)O

System: HSC mobilization
Assay: HSC mobilization in mouse (time-response and dose-response study, CFU-C assay)
Format: in vivo, Male C57BI/6 mice
Conditions: for time of maximum mobilization: from time-response study; for ED50: sigmoidal fit of doses 1.5, 5 and 15 mg/kg i.p., maximum constrained to 4000 CFU/mL, ED50 corresponds to 2000 CFU/mL
Method: For the compounds of Ex. 1 and Ex. 2 a HSC mobilization study was performed consisting of a time-response study to assess the time of maximum mobilization after dosing and a subsequent dose-response study.
Male C57BI/6 mice (Janvier, France; n = 5 for Ex. 1, n = 3 for Ex. 2) received bolus i.p. injections of Ex. 1 and Ex. 2, respectively, (5 mg/kg) dissolved in 10 µL of water per g mouse weight containing 0.9% NaCl. Blood was withdrawn from the cheek pouch into EDTA coated tubes for the time points 0, 0.5, 1, 2, 4, 6 and 8 hrs after administration. The colony forming unit in culture counts (CFU-C counts) were determined by performing a CFU-C assay as described below.
Male C57BI/6 mice (Janvier, France; n = 5 per dose group for Ex. 1, n = 3 per dose group for Ex. 2) received bolus i.p. injections of Ex. 1 and Ex. 2, respectively, at doses of 0.5, 1.5, 5 and 15 mg/kg (compound dissolved in 10 µL of water per g mouse weight containing 0.9% NaCl). Blood was collected as described above at the time of maximum mobilization for Ex. 1 (4 h) and Ex. 2 (2 h), respectively.
CFU-C counts were determined by culturing aliquots of lysed peripheral blood in standard semi-solid progenitor cell culture medium. In brief, a defined amount of blood was washed with PBS buffer (Gibco®) containing 0.5% bovine serum albumin, followed by red blood cell lysis in hypotonic NH4Cl buffer (Sigma) and a second wash step. The cell pellet was resuspended in DMEM (Gibco®) containing 10% FCS, suspended in 2 mL of commercially available, cytokine-replete methylcellulose medium for murine cells (Cell Systems, USA), and plated in duplicate into 35 mm cell culture dishes. CFU-C were scored after 7-8 days incubation under standard conditions (20% O2, saturated humidity, 5% CO2, 37 °C). Peripheral blood cellularity was analyzed using an automated blood count machine (Drew Scientific).
Considering the curve progressions of both compounds the dose-responses are constrained to a maximum response of 4000 CFU/mL. The ED50-values indicated in Table 9 are therefore corresponding to a response of 2000 CFU/mL.

[1] = time-response study, 5 mg/kg bolus i.p., 0.5 h after administration
[2] = time-response study, 5 mg/kg bolus i.p., 1 h after administration
[3] = time-response study, 5 mg/kg bolus i.p., 2 h after administration
[4] = time-response study, 5 mg/kg bolus i.p., 4 h after administration
[5] = time-response study, 5 mg/kg bolus i.p., 6 h after administration
[6] = time-response study, 5 mg/kg bolus i.p., 8 h after administration

Row | Compound | CFU/mL ± SD (dose-response study, 0.5 mg/kg bolus i.p., blood collected at 4 h) | CFU/mL ± SD (dose-response study, 1.5 mg/kg bolus i.p., blood collected at 4 h) | CFU/mL ± SD (dose-response study, 5 mg/kg bolus i.p., blood collected at 4 h) | CFU/mL ± SD (dose-response study, 15 mg/kg bolus i.p., blood collected at 4 h) | time of maximum mobilization (5 mg/kg bolus i.p.) | ED50 | CFU/mL ± SD [1] | CFU/mL ± SD [2] | CFU/mL ± SD [3] | CFU/mL ± SD [4] | CFU/mL ± SD [5] | CFU/mL ± SD [6] | CFU/mL ± SD (dose-response study, 1.5 mg/kg bolus i.p., blood collected at 2 h) | CFU/mL ± SD (dose-response study, 5 mg/kg bolus i.p., blood collected at 2 h) | CFU/mL ± SD (dose-response study, 15 mg/kg bolus i.p., blood collected at 2 h)
1 | CC(C)NCCCC[C@@H]1NC(=O)[C@H](CCC(N)=O)NC(=O)[C@H](Cc2ccc(O)cc2)NC(=O)[C@@H]2CSSC[C@H](NC(=O)[C@H](Cc3ccc(O)cc3)NC(=O)[C@H](Cc3c[nH]cn3)NC(=O)[C@H](Cc3ccc(O)cc3)NC(=O)[C@@H]3CCCN3C(=O)[C@H]3CCCN3C1=O)C(=O)N[C@@H](CO)C(=O)N[C@@H](C)C(=O)N1CCC[C@@H]1C(=O)N[C@@H](CCCNC(C)C)C(=O)N[C@@H](CCCNC(=N)N)C(=O)N[C@@H](Cc1ccc(O)cc1)C(=O)N2 [Ex. 1, cyclo(-Tyr^1-His^2-Tyr^3-Cys^4-Ser^5-Ala^6-^DPro^7-Orn(iPr)^8-Arg^9-Tyr^10-Cys^11-Tyr^12-Gln^13-Lys(iPr)^14-^DPro^15-Pro^16-), disulfide bond between Cys^4 and Cys^11] (cyclo(YHYCSA[dP][Orn(iPr)]RYCYQ[Lys(iPr)][dP]P); disulfide 4-11) | 974 ± 57 CFU/mL | 1672 ± 233 CFU/mL | 3325 ± 310 CFU/mL | 3289 ± 431 CFU/mL | 4 h | 1.76 mg/kg | 511 ± 85 CFU/mL | 2208 ± 262 CFU/mL | 2592 ± 450 CFU/mL | 3109 ± 537 CFU/mL | 1857 ± 281 CFU/mL | 588 ± 161 CFU/mL |  |  | 
2 | COc1ccc(C[C@@H]2NC(=O)[C@H](Cc3c[nH]cn3)NC(=O)[C@H](Cc3ccc(O)cc3)NC(=O)[C@@H]3CCCN3C(=O)[C@H]3CCCN3C(=O)[C@H](CCCCNC(C)C)NC(=O)[C@H](CCC(N)=O)NC(=O)[C@H](Cc3ccc(O)cc3)NC(=O)[C@@H]3CSSC[C@H](NC2=O)C(=O)N[C@@H](CO)C(=O)N[C@@H](C)C(=O)N2CCC[C@@H]2C(=O)N[C@@H](CCCNC(C)C)C(=O)N[C@@H](CCCNC(=N)N)C(=O)N[C@@H](Cc2ccc(O)cc2)C(=O)N3)cc1 [Ex. 2, cyclo(-Tyr^1-His^2-Tyr(Me)^3-Cys^4-Ser^5-Ala^6-^DPro^7-Orn(iPr)^8-Arg^9-Tyr^10-Cys^11-Tyr^12-Gln^13-Lys(iPr)^14-^DPro^15-Pro^16-), disulfide bond between Cys^4 and Cys^11] (cyclo(YHY(Me)CSA[dP][Orn(iPr)]RYCYQ[Lys(iPr)][dP]P); disulfide 4-11) |  |  |  |  | 2 h | 2.38 mg/kg | 839 ± 148 CFU/mL | 1020 ± 262 CFU/mL | 2894 ± 329 CFU/mL | 1929 ± 643 CFU/mL | 1164 ± 151 CFU/mL | 373 ± 96 CFU/mL | 1314 ± 463 CFU/mL | 2894 ± 329 CFU/mL | 3589 ± 576 CFU/mL
